These compounds were tested against unphosphorylated-BTK kinase domain (UP-BTK), GST-tagged human BTK (389-659aa) (Homo sapiens (Human), UniProt Q06187) (assay: BTK kinase Lanthascreen binding assay). Conditions: negative log of the IC50 in molar; 60 minutes incubation with 50 nM Tracer 236.
Protocol: BTK Kinase Lanthascreen Binding Assay:
A BTK kinase lanthascreen binding assay monitors compound binding to unphosphorylated-BTK kinase domain (UP-BTK), by competing with a fluorescent labeled tracer. […] Data were analyzed using Xlfit™ version 5.3 from ID Business Solutions (Guildford), Microsoft Excel add-in. pIC50 refers to the negative log of the IC50 in molar.

Chain of unphosphorylated-BTK kinase domain (UP-BTK), GST-tagged human BTK (389-659aa) (Q06187 389-659): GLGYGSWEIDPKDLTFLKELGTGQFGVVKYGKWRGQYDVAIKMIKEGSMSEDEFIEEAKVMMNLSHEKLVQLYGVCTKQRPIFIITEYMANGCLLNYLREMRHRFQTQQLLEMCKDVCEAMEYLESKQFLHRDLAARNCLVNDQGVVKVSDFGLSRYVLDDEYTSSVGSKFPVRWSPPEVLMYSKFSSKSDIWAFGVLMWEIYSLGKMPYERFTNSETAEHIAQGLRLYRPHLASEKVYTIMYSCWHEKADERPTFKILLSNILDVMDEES

SMILES | BTK_I_binding pIC50
C=CC(=O)N1CCC[C@@H](NC(=O)c2sc3nccc4c3c2NC(=O)N4c2cnc(OC3CCC3)cc2C)C1 (single isomer, unassigned) [Example 700, (R)—N-(1-Acryloylpiperidin-3-yl)-5-(*R)-(6-cyclobutoxy-4-methylpyridin-3-yl)-4-oxo-4,5-dihydro-3H-1-thia-3,5,8-triazaacenaphthylene-2-carboxamide] | 8.1
C=CC(=O)N1CC[C@@H](NC(=O)c2sc3nccc4c3c2NC(=O)N4c2ccc(Oc3ccccc3)nc2C)C1 (single isomer, unassigned) [Example 716, (R)—N-(1-Acryloylpyrrolidin-3-yl)-5-(*S)-(2-methyl-6-phenoxypyridin-3-yl)-4-oxo-4,5-dihydro-3H-1-thia-3,5,8-triazaacenaphthylene-2-carboxamide] | 8.0

The remaining lines, values ahead:

BTK_I_binding pIC50 | SMILES
5.9 | C=CC(=O)N1CCC[C@@H](NC(=O)c2sc3nccc4c3c2NC(=O)N4c2ccc(OC(F)(F)F)cc2C)C1 (single isomer, unassigned) [Example 624, (R)—N-(1-Acryloylpiperidin-3-yl)-5-(*R)-(2-methyl-4-(trifluoromethoxy)phenyl)-4-oxo-4,5-dihydro-3H-1-thia-3,5,8-triazaacenaphthylene-2-carboxamide]
8.3 | C=CC(=O)N1CCC[C@@H](NC(=O)c2sc3nccc4c3c2NC(=O)N4c2ccc(Oc3ccccc3)nc2C)C1 (single isomer, unassigned) [Example 661]
8.1 | C=CC(=O)N1CCC[C@@H](NC(=O)c2sc3nccc4c3c2NC(=O)N4c2cnc(CC(C)C)cc2C)C1 (single isomer, unassigned) [Example 669, (R)—N-(1-Acryloylpiperidin-3-yl)-5-(*S)-(6-isobutyl-4-methylpyridin-3-yl)-4-oxo-4,5-dihydro-3H-1-thia-3,5,8-triazaacenaphthylene-2-carboxamide]
7.2 | C=CC(=O)N1CCC[C@@H](NC(=O)c2sc3nccc4c3c2NC(=O)N4c2ccc(OC3CCOCC3)cc2C)C1 (single isomer, unassigned) [Example 675, (R)—N-(1-Acryloylpiperidin-3-yl)-5-(*R)-(2-methyl-4-((tetrahydro-2H-pyran-4-yl)oxy)phenyl)-4-oxo-4,5-dihydro-3H-1-thia-3,5,8-triazaacenaphthylene-2-carboxamide]
7.6 | C=CC(=O)N1CCC[C@@H](NC(=O)c2sc3nccc4c3c2NC(=O)N4c2ccc(Oc3ccccc3)nc2C)C1 (single isomer, unassigned) [Example 690, (R)—N-(1-Acryloylpiperidin-3-yl)-5-(*R)-(2-methyl-6-phenoxypyridin-3-yl)-4-oxo-4,5-dihydro-3H-1-thia-3,5,8-triazaacenaphthylene-2-carboxamide]
6.0 | C=CC(=O)N1CCC[C@@H](NC(=O)c2sc3nccc4c3c2NC(=O)N4c2cnc(Oc3ccccc3)cc2C)C1 (single isomer, unassigned) [Example 691, (R)—N-(1-Acryloylpiperidin-3-yl)-5-(*R)-(4-methyl-6-phenoxypyridin-3-yl)-4-oxo-4,5-dihydro-3H-1-thia-3,5,8-triazaacenaphthylene-2-carboxamide]
6.4 | C=CC(=O)N1CCC[C@@H](NC(=O)c2sc3nccc4c3c2NC(=O)N4c2cnc(CC(C)C)cc2C)C1 (single isomer, unassigned) [Example 722, (R)—N-(1-Acryloylpiperidin-3-yl)-5-(*R)-(6-isobutyl-4-methylpyridin-3-yl)-4-oxo-4,5-dihydro-3H-1-thia-3,5,8-triazaacenaphthylene-2-carboxamide]

Same assay, conditions: unphosphorylated-BTK kinase domain; 60 minutes incubation; pIC50 = negative log of the IC50 in molar

SMILES | BTK_I_binding pIC50
Cc1cc(OC2CCOCC2)ccc1N1C(=O)Nc2c(C(=O)N[C@@H]3CCCN(C)C3)sc3nccc1c23 (single isomer, unassigned) [Example 343, (R)-5-(*R)-(2-Methyl-4-((tetrahydro-2H-pyran-4-yl)oxy)phenyl)-N-(1-methylpiperidin-3-yl)-4-oxo-4,5-dihydro-3H-1-thia-3,5,8-triazaacenaphthylene-2-carboxamide] | 5.3
CN1CCC[C@@H](NC(=O)c2sc3nccc4c3c2NC(=O)N4c2c(Cl)ccc3c2OCO3)C1 (single isomer, unassigned) [Example 353, (R)-5-(*R)-(5-Chlorobenzo[d][1,3]dioxol-4-yl)-N-(1-methylpiperidin-3-yl)-4-oxo-4,5-dihydro-3H-1-thia-3,5,8-triazaacenaphthylene-2-carboxamide] | 5.8
C=C(Cl)C(=O)N1CCC[C@@H](NC(=O)c2sc3nccc4c3c2NC(=O)N4c2ccc(Oc3ccccc3)cc2C)C1 (single isomer, unassigned) [Example 366, (R)—N-(1-(2-Chloroacryloyl)piperidin-3-yl)-5-(*S)-(2-methyl-4-phenoxyphenyl)-4-oxo-4,5-dihydro-3H-1-thia-3,5,8-triazaacenaphthylene-2-carboxamide] | 7.1
Cc1cc(Oc2ccccc2)ccc1N1C(=O)Nc2c(C(=O)N[C@@H]3CCCN(C(=O)/C=C/CN)C3)sc3nccc1c23 (single isomer, unassigned) [Example 367, (R,E)-N-(1-(4-Aminobut-2-enoyl)piperidin-3-yl)-5-(*R)-(2-methyl-4-phenoxyphenyl)-4-oxo-4,5-dihydro-3H-1-thia-3,5,8-triazaacenaphthylene-2-carboxamide] | 6.2
CCOC(C)(C)/C=C(\C#N)C(=O)N1CCC[C@@H](NC(=O)c2sc3nccc4c3c2NC(=O)N4c2ccc(Oc3ccccc3)cc2C)C1 (single isomer, unassigned) [Example 478, (R,*E)-N-(1-(2-Cyano-4-ethoxy-4-methylpent-2-enoyl)piperidin-3-yl)-5-(*S)-(2-methyl-4-phenoxyphenyl)-4-oxo-4,5-dihydro-3H-1-thia-3,5,8-triazaacenaphthylene-2-carboxamide] | 7.8
CCOC(C)(C)/C=C(\C#N)C(=O)N1CCC[C@@H](NC(=O)c2sc3nccc4c3c2NC(=O)N4c2ccc(Oc3ccccc3)cc2C)C1 (single isomer, unassigned) [Example 480, (R,*E)-N-(1-(2-Cyano-4-ethoxy-4-methylpent-2-enoyl)piperidin-3-yl)-5-(*R)-(2-methyl-4-phenoxyphenyl)-4-oxo-4,5-dihydro-3H-1-thia-3,5,8-triazaacenaphthylene-2-carboxamide] | 7.2
CCOC(C)(C)/C=C(\C#N)C(=O)N1CCC[C@@H](NC(=O)c2sc3nccc4c3c2NC(=O)N4c2ccc(Oc3ccccc3)cc2C)C1 (single isomer, unassigned) [Example 487, (R,E)-N-(1-(2-Cyano-4-ethoxy-4-methylpent-2-enoyl)piperidin-3-yl)-5-(*S)-(2-methyl-4-phenoxyphenyl)-4-oxo-4,5-dihydro-3H-1-thia-3,5,8-triazaacenaphthylene-2-carboxamide] | 7.6
Cc1cc(Oc2ccccc2)ccc1N1C(=O)Nc2c(C(=O)N[C@@H]3CCCN(C(=O)/C=C/CN)C3)sc3nccc1c23 (single isomer, unassigned) [Example 511, (R,E)-N-(1-(4-Aminobut-2-enoyl)piperidin-3-yl)-5-(*S)-(2-methyl-4-phenoxyphenyl)-4-oxo-4,5-dihydro-3H-1-thia-3,5,8-triazaacenaphthylene-2-carboxamide] | 7.8
Cc1cc(Oc2ccccc2)ccc1N1C(=O)Nc2c(C(=O)N[C@@H]3CCCN(C(=O)/C(C#N)=C/C4CC4)C3)sc3nccc1c23 (single isomer, unassigned) [Example 514, (R,E)-N-(1-(2-Cyano-3-cyclopropylacryloyl)piperidin-3-yl)-5-(*S)-(2-methyl-4-phenoxyphenyl)-4-oxo-4,5-dihydro-3H-1-thia-3,5,8-triazaacenaphthylene-2-carboxamide] | 7.7
Cc1cc(Oc2ccccc2)ccc1N1C(=O)Nc2c(C(=O)N[C@@H]3CCCN(C(=O)/C=C/CNS(C)(=O)=O)C3)sc3nccc1c23 (single isomer, unassigned) [Example 532, (R,E)-5-(*S)-(2-Methyl-4-phenoxyphenyl)-N-(1-(4-(methylsulfonamido)but-2-enoyl)piperidin-3-yl)-4-oxo-4,5-dihydro-3H-1-thia-3,5,8-triazaacenaphthylene-2-carboxamide] | 7.4

Continued, values first:

BTK_I_binding pIC50 | SMILES
5.9 | C=CC(=O)N1CCC[C@@H](NC(=O)c2sc3nccc4c3c2NC(=O)N4c2ccc(OC(C)C)cc2C)C1 (single isomer, unassigned) [Example 417, (R)—N-(1-Acryloylpiperidin-3-yl)-5-(*S)-(4-isopropoxy-2-methylphenyl)-4-oxo-4,5-dihydro-3H-1-thia-3,5,8-triazaacenaphthylene-2-carboxamide]
7.8 | C=CC(=O)N1CCC[C@@H](NC(=O)c2sc3nccc4c3c2NC(=O)N4c2ccc(OC(C)C)cc2C)C1 (single isomer, unassigned) [Example 418, (R)—N-(1-Acryloylpiperidin-3-yl)-5-(*R)-(4-isopropoxy-2-methylphenyl)-4-oxo-4,5-dihydro-3H-1-thia-3,5,8-triazaacenaphthylene-2-carboxamide]
7.8 | C=CC(=O)N1CCC[C@@H](NC(=O)c2sc3nccc4c3c2NC(=O)N4c2ccc(OC(F)(F)F)cc2C)C1 (single isomer, unassigned) [Example 505, (R)—N-(1-Acryloylpiperidin-3-yl)-5-(*S)-(2-methyl-4-(trifluoromethoxy)phenyl)-4-oxo-4,5-dihydro-3H-1-thia-3,5,8-triazaacenaphthylene-2-carboxamide]
7.6 | C=CC(=O)N1CC[C@H](NC(=O)c2sc3nccc4c3c2NC(=O)N4c2ccc(Oc3ccccc3)cc2C)C1 (single isomer, unassigned) [Example 518, (S)—N-(1-Acryloylpyrrolidin-3-yl)-5-(*S)-(2-methyl-4-phenoxyphenyl)-4-oxo-4,5-dihydro-3H-1-thia-3,5,8-triazaacenaphthylene-2-carboxamide]
